From PMC6677754, “In silico design and optimization of selective membranolytic anticancer peptides” (Scientific Reports, 2019)
Peptide text beside a SMILES is read from it.

Columns and labels:
[1] = tested on: A549 lung adenocarcinoma cell line; test: Cell viability assay (MTT); type: cell-based, human; details: Table S2; MTT, 24 h; mean ± sd; N = 2 independent measurements with six technical replicates each (Figs S6-S8); read-out: A549 EC50 /µM
Experimental: (§1) 10% fetal bovine serum and 1% penicillin-streptomycin (Thermo Fisher Scientific, Waltham, MA, USA). The cultures were kept at 37°C in a 5% CO2 atmosphere incubator (Thermo Fisher Scientific, Waltham, MA, USA) and split every two to three days to new culture flasks. Cells no older than 20 passages were used for experiments.
(§2) For splitting, the cell culture media was aspirated, the cells were washed with 0.01 M phosphate buffered saline (PBS, Gibco, Thermo Fisher Scientific, Waltham, MA, USA) and trypsin-EDTA (trypsin - ethylene diamine tetraacetic acid, Fisher scientific, UK) was added to the cell layer to detach them from the flask surface. After incubation for 2 min at 37°C, cells were resuspended with an equal volume of DMEM media and centrifuged at 310 g for 5 min at 4°C. After removal of the supernatant the cells were resuspended in DMEM cell media and split into new cell culture flasks at a 1/3 to 1/5 ratio.
(§3) Determination of the anticancer peptides half effective concentration (EC50) was performed by a 3-(4,5-dimethylthiazol-2-yl)-2,5-diphenyltetrazolium bromide (MTT) assay, as described elsewhere21. Briefly, […] were seeded in each well of a 96-well plate and left to adhere and […]
(§4) sulfoxide (DMSO, Fisher Scientific, UK) at an intermediate concentration of 1 mM. The peptides were then diluted in a 2-fold dilution series starting at 100 μM with DMEM culture media. Cells were incubated with the peptide solutions for 24 h. After this time, the cell media was removed and the cells were incubated for 1 h with a 0.5 mg mL−1 MTT solution to allow enough time for formazan crystal formation (Sigma Aldrich, Steinheim, Germany). The supernatant was removed and 100 μL of DMSO were added into each well to resuspend the formazan crystals.
(§5) After manually shaking the plates to completely dissolve the crystals, the absorbance was measured at 540 nm in a Tecan Infinity M1000 spectrophotometer. The cell viability was determined based on the quantification of the color intensity in each culture well, considering the absorbance obtained by the control media without peptides as a 100% survival. The resultant sigmoidal curves were analyzed with the drc22 R package using a log-logistic model

[2] = tested on: MCF7 breast adenocarcinoma cell line; test: Cell viability assay (MTT); type: cell-based, human; details: Table S2, 24 h, mean ± sd, N = 2 independent measurements with six technical replicates each (Figs S6-S8)
Experimental: as §1, §2, §3, §4, §5

human erythrocytes = test: Hemolysis assay; type: cell-based; details: 1 h
Experimental: Human erythrocytes were freshly ordered at the Blutspende Zürich. Erythrocytes were washed 3 times with a […] phosphate buffered saline (PBS, Gibco, Thermo Fisher Scientific, Waltham, MA, USA) solution centrifuging at 800 g for 10 min or until the supernatant appeared clear to remove the blood plasma. A 5% v/v erythrocytes : PBS solution was prepared for direct use. For HC50 determination, peptides were dissolved in PBS at an intermediate concentration of 1 mM. A dilution series of the peptide from 200 to 6.25 μM was plated in a round-bottomed 96-well plate in triplicates, with a volume of 50 μL per well. PBS buffer and a solution of 0.1% Triton-X-100 (Fisher Chemical, Loughborough, UK) in PBS were employed as negative and positive controls, respectively. 50 μL of the 5% erythrocyte solution were added in each well and the plates were incubated at 37°C for 1 h. After this time, 100 μL PBS were added to each well and plates were centrifuged at 800 g for 10 min. 100 μL of the supernatant were transferred to a flat-bottomed 96-well plate and the absorbance was measured at 540 nm in a Tecan Infinity M1000 spectrophotometer plate reader. The hemolysis percentage was calculated, considering the absorbance values of the Triton and PBS wells as 100% and 0% hemolysis, respectively.
The resultant sigmoidal curves were analyzed with the drc22 R package using a log-logistic model with 3 fixed parameters to obtain the HC50 values. […]
NCI-60 screening procedure […]
Each peptide was tested in a 5-concentration assay, starting at 10^-4 M and diluting 10-fold to the lowest 10^-8 M concentration. The peptides were incubated for 48 h and the cell concentration was assayed by using the sulforhodamine B assay25 and optical density measurements. The growth inhibition (GI50) value24, measures the growth inhibitory power of the drug agent. The GI50 value is the concentration of the test drug for which the condition in Eq. S1 is met, where T is the optical density of the test well after a 48-h exposure to the peptide, T0 the optical density before applying the peptide drug and C the control optical density of a well where no peptide was applied.

[3] = tested on: noncancer HDMEC primary cells (human dermal microvascular endothelial cells); test: Cell viability assay (MTT); type: cell-based; details: Table S2; noncancer primary cells; MTT, 24 h; mean ± sd; N = 2 independent measurements with six technical replicates each (Figs S6-S8)
Experimental: as §1, §2, §3, §4, §5

| Structure (SMILES) | EC50 [1] [µM] | EC50 [2] [µM] | Eryhtr. HC50 /µM (human erythrocytes; red cells of human) [µM] | EC50 [3] [µM] | Eryhtr. HC50 /µM (human erythrocytes; Table S2, 5% v/v erythrocytes in PBS added 1:1, peptide 200 to 6.25 µM, 37°C, absorbance 540 nm, 0.1% Triton-X-100 = 100%, mean ± sd, N = 2 independent, three technical replicates) [µM] |
| --- | --- | --- | --- | --- | --- |
| CC[C@H](C)[C@H](NC(=O)[C@H](CCCCN)NC(=O)[C@@H]1CCCN1C(=O)[C@H](Cc1c[nH]c2ccccc12)NC(=O)[C@@H](NC(=O)[C@H](CCC(=O)O)NC(=O)[C@H](Cc1c[nH]c2ccccc12)NC(=O)[C@H](Cc1ccccc1)NC(=O)[C@H](CCCCN)NC(=O)[C@H](CCCCN)NC(=O)[C@@H](NC(=O)[C@@H](NC(=O)[C@@H](NC(=O)[C@H](CCCCN)NC(=O)[C@H](CC(C)C)NC(=O)[C@H](CCC(N)=O)NC(=O)[C@H](CCCNC(=N)N)NC(=O)[C@@H](NC(=O)[C@H](CCCNC(=N)N)NC(=O)[C@@H](N)Cc1c[nH]cn1)[C@@H](C)CC)[C@@H](C)O)[C@@H](C)O)[C@@H](C)CC)[C@@H](C)CC)C(N)=O [Off10] (H-HRIRQLKTTIKKFWEIWPKI-NH2) | 83 ± 11 | 56 ± 5 | > 200 | 58.1 ± 0.3 |  |
| CC[C@H](C)[C@H](NC(=O)[C@H](Cc1c[nH]cn1)NC(=O)[C@H](Cc1c[nH]c2ccccc12)NC(=O)[C@H](C)NC(=O)[C@H](CCCCN)NC(=O)[C@H](CCCNC(=N)N)NC(=O)[C@H](CC(C)C)NC(=O)[C@H](Cc1c[nH]c2ccccc12)NC(=O)[C@@H](NC(=O)[C@H](CCCNC(=N)N)NC(=O)[C@H](Cc1c[nH]c2ccccc12)NC(=O)[C@H](CCCCN)NC(=O)[C@H](CCCCN)NC(=O)[C@H](CC(C)C)NC(=O)[C@H](CC(C)C)NC(=O)[C@@H](N)Cc1c[nH]cn1)[C@@H](C)O)C(=O)N[C@H](C(=O)NCC(=O)N[C@@H](CCCCN)C(=O)N[C@H](C(N)=O)C(C)C)C(C)C [Off2.2.3] (H-HLLKKWRTWLRKAWHIVGKV-NH2) | 9 ± 1 | 7 ± 1 | 59 ± 6 | 6.1 ± 0.5 |  |
| CC(C)C[C@H](NC(=O)[C@H](CCCNC(=N)N)NC(=O)CNC(=O)[C@H](CC(C)C)NC(=O)[C@@H](NC(=O)[C@H](CCCCN)NC(=O)[C@H](Cc1c[nH]c2ccccc12)NC(=O)[C@H](Cc1ccc(O)cc1)NC(=O)[C@H](CCCNC(=N)N)NC(=O)[C@H](CCCCN)NC(=O)[C@H](Cc1ccc(O)cc1)NC(=O)[C@@H](NC(=O)[C@@H](NC(=O)[C@H](CCCCN)NC(=O)[C@H](Cc1ccccc1)NC(=O)[C@H](Cc1c[nH]cn1)NC(=O)[C@H](CCCCN)NC(=O)[C@H](CC(C)C)NC(=O)[C@H](Cc1ccccc1)NC(=O)[C@@H](N)CCCNC(=N)N)[C@@H](C)O)C(C)C)C(C)C)C(N)=O [Off8] (H-RFLKHFKTVYKRYWKVLGRL-NH2) | 17 ± 4 | 11.9 ± 0.1 | 144 ± 4 | 14.3 ± 0.2 |  |
| CC[C@H](C)[C@H](NC(=O)[C@H](CC(C)C)NC(=O)[C@H](CCCCN)NC(=O)[C@H](Cc1ccccc1)NC(=O)[C@@H](NC(=O)[C@H](CCCCN)NC(=O)[C@H](CCCCN)NC(=O)[C@H](Cc1ccccc1)NC(=O)[C@H](Cc1c[nH]c2ccccc12)NC(=O)[C@@H](NC(=O)[C@H](CCCCN)NC(=O)[C@H](CC(C)C)NC(=O)[C@H](Cc1c[nH]cn1)NC(=O)[C@H](CCCNC(=N)N)NC(=O)[C@@H](NC(=O)[C@H](Cc1ccc(O)cc1)NC(=O)[C@@H](N)CCCCN)[C@@H](C)CC)[C@@H](C)O)C(C)C)C(=O)NCC(=O)N[C@@H](CCC(=O)O)C(=O)N[C@H](C(N)=O)C(C)C [Off4] (H-KYIRHLKTWFKKVFKLIGEV-NH2) | 15 ± 0.1 | 11 ± 2 | 20 ± 3 | 7.1 ± 0.1 |  |
| CC[C@H](C)[C@H](NC(=O)[C@H](CC(C)C)NC(=O)[C@@H](N)CCC(N)=O)C(=O)N[C@@H](Cc1c[nH]cn1)C(=O)N[C@@H](CCCCN)C(=O)N[C@H](C(=O)N[C@@H](CCCNC(=N)N)C(=O)N[C@H](C(=O)N[C@@H](Cc1c[nH]c2ccccc12)C(=O)N[C@@H](Cc1ccc(O)cc1)C(=O)N[C@@H](CCCNC(=N)N)C(=O)N[C@@H](CCCCN)C(=O)N[C@@H](C)C(=O)N[C@@H](Cc1c[nH]c2ccccc12)C(=O)N[C@@H](Cc1c[nH]cn1)C(=O)N[C@H](C(=O)N[C@@H](CC(C)C)C(=O)NCC(=O)N[C@@H](CCCCN)C(=O)N[C@H](C(N)=O)C(C)C)C(C)C)[C@@H](C)O)[C@@H](C)CC [Off2.2.2] (H-QLIHKIRTWYRKAWHVLGKV-NH2) | 20 ± 2 | 13 ± 1 | > 200 | 28 ± 3 |  |
| CC[C@H](C)[C@H](NC(=O)[C@H](CCCCN)NC(=O)[C@H](CCCCN)NC(=O)[C@@H](NC(=O)[C@@H](NC(=O)[C@@H](N)CCC(N)=O)[C@@H](C)CC)[C@@H](C)CC)C(=O)N[C@@H](CCCNC(=N)N)C(=O)N[C@H](C(=O)N[C@@H](Cc1c[nH]c2ccccc12)C(=O)N[C@@H](Cc1ccc(O)cc1)C(=O)N[C@@H](CCCNC(=N)N)C(=O)N[C@@H](CCCCN)C(=O)N[C@@H](C)C(=O)N[C@@H](Cc1c[nH]c2ccccc12)C(=O)N[C@@H](Cc1c[nH]cn1)C(=O)N[C@H](C(=O)N[C@@H](CC(C)C)C(=O)NCC(=O)N[C@@H](CCCCN)C(=O)N[C@H](C(N)=O)C(C)C)C(C)C)[C@@H](C)O [Off2.2] (H-QIIKKIRTWYRKAWHVLGKV-NH2) | 20 ± 1 | 11.6 ± 0.8 |  | 42 ± 7 | > 200 |
| CC[C@H](C)[C@H](NC(=O)[C@@H]1CCCN1C(=O)[C@H](Cc1c[nH]cn1)NC(=O)[C@H](Cc1ccccc1)NC(=O)[C@H](CCCCN)NC(=O)[C@H](CCCCN)NC(=O)[C@H](Cc1ccccc1)NC(=O)[C@@H](NC(=O)[C@@H](N)CCCNC(=N)N)C(C)C)C(=O)N[C@@H](Cc1ccc(O)cc1)C(=O)N[C@@H](Cc1c[nH]cn1)C(=O)N[C@@H](CCCNC(=N)N)C(=O)N[C@H](C(=O)N[C@@H](Cc1c[nH]c2ccccc12)C(=O)N[C@@H](CCCNC(=N)N)C(=O)N[C@@H](CC(C)C)C(=O)N[C@@H](Cc1c[nH]c2ccccc12)C(=O)NCC(=O)N[C@@H](Cc1c[nH]cn1)C(=O)N[C@@H](CC(C)C)C(N)=O)C(C)C [Off1] (H-RVFKKFHPIYHRVWRLWGHL-NH2) | 49 ± 2 | 27.4 ± 0.5 | > 200 | 56 ± 7 |  |
| CC[C@H](C)[C@H](NC(=O)[C@H](CC(C)C)NC(=O)[C@@H](N)CCC(N)=O)C(=O)N[C@@H](CCCCN)C(=O)N[C@@H](CCCCN)C(=O)N[C@@H](CC(C)C)C(=O)N[C@@H](CCCNC(=N)N)C(=O)N[C@H](C(=O)N[C@@H](Cc1c[nH]c2ccccc12)C(=O)N[C@@H](Cc1ccc(O)cc1)C(=O)N[C@@H](CCCNC(=N)N)C(=O)N[C@@H](CCCCN)C(=O)N[C@@H](C)C(=O)N[C@@H](Cc1c[nH]c2ccccc12)C(=O)N[C@@H](Cc1c[nH]cn1)C(=O)N[C@H](C(=O)N[C@@H](CC(C)C)C(=O)NCC(=O)N[C@@H](CCCCN)C(=O)N[C@@H](CC(C)C)C(N)=O)C(C)C)[C@@H](C)O [Off2.2.6] (H-QLIKKLRTWYRKAWHVLGKL-NH2) | 10.6 ± 0.8 | 6.5 ± 0.2 | > 200 | 9 ± 1 |  |
